Results as given in patent publication US7611630B2, “Method and device for evaluation of pharmaceutical compositions” (Bend Research, Inc., priority 2004, dated 2009).

Assay: membrane-permeation test, plasma-treated (hydrophilic feed side) membrane, PBS feed, decanol permeate
Assay type: in vitro ADME
Experimental: A cold plasma was used to treat the feed side of a microporous membrane as follows. An Accurel® PP 1E microporous polypropylene membrane was obtained from Membrana GmbH (Wuppertal, Germany). This membrane has a nominal pore size of 0.1 μm, a thickness of about 92 μm, and a porosity of about 70%. The contact angle of a drop of water placed on the untreated membrane is greater than about 110°.
The membrane was rinsed five times in fresh isopropyl alcohol at room temperature for about 24 hours, for a total rinsing time of about 120 hours, and then allowed to air dry. Prior to treatment, the membrane was rinsed in methanol in a sonicating bath for 1 minute at ambient temperature, and then allowed to air dry at ambient temperature.
A sample of the membrane measuring about 10 cm by about 23 cm was placed into a glass-walled plasma chamber having an inside diameter of about 3 inches (7.5 cm). The membrane was positioned such that the permeate side of the membrane was against the glass wall of the plasma chamber. The atmosphere of the plasma chamber was saturated with water vapor at a pressure of 550 mtorr by placing a shallow tray of water into the chamber prior to reducing the pressure using a vacuum pump.
After achieving a constant pressure in the plasma chamber (about 3 to 5 minutes), the plasma was generated using radio frequency (RF) power inductively coupled into the chamber via annular electrodes. The power on the RF generator was set at 50 watts. The membrane was exposed to the plasma for 45 seconds, after which the power was turned off and the pressure in the chamber increased to ambient using air. The contact angle of a drop of water placed on the surface of the plasma-treated membrane was about 40°. The contact angle of a drop of water placed on the permeate side of the same membrane was greater than about 110°.
The crystalline form of the cholesteryl ester transfer protein (CETP) inhibitor [2R,4S]4-[(3,5-bis-trifluoromethyl-benzyl)-methoxycarbonyl-amino]-2-ethyl-6-trifluoromethyl-3,4-dihydro-2H-quinoline-1-carboxylic acid ethyl ester, also known as torcetrapib (“Drug 1”) was evaluated in a membrane-permeation test. An apparatus similar to the one shown schematically in FIG. 3 was assembled as follows. A permeate reservoir was formed by gluing a sample of the plasma-treated membrane described above to a glass tube having an inside diameter of about 1 inch (2.54 cm) using an epoxy-based glue (LOCTITE® E-30CL HYSOL® from Henkel Loctite Corp, Rocky Hill, Conn.). The feed-side of the membrane was oriented so that it was on the outside of the permeate reservoir, while the permeate-side of the membrane was oriented so that it was on the inside of the reservoir. The glue was allowed to set by placing the permeate reservoir in an oven at 50° C. and 25% relative humidity (RH) overnight. The contact angle of a drop of water on the feed side of the membrane after assembling the permeate reservoir was about 50°. The effective membrane area of the permeate reservoir was about 4.9 cm^2.
[…] […] This is well in excess of the solubility of Drug 1 in water, estimated to be less than about 0.04 μg/mL. The feed solution was mixed on a vortex mixer for about 1 minute.
The apparatus was assembled by first filling the permeate reservoir with the permeate solution. The permeate reservoir, with attached membrane, was placed within a glass feed reservoir about 3.3 cm in diameter such that the membrane was held about 1 cm above the bottom of the feed reservoir, and the membrane was wetted by the permeate solution. The feed reservoir was equipped with a magnetic stir bar and the reservoir was placed on a stir plate and adjusted to a stir rate of 600 rpm. Care was taken to ensure no air bubbles were trapped beneath the feed side of the membrane. Time 0 was taken as the time the permeate reservoir was placed within the feed solution reservoir such that the feed solution contacted the membrane surface. […]

## CCOC(=O)N1c2ccc(C(F)(F)F)cc2[C@@H](N(Cc2cc(C(F)(F)F)cc(C(F)(F)F)c2)C(=O)OC)C[C@H]1CC [Drug 1, [2R,4S]4-[(3,5-bis-trifluoromethyl-benzyl)-methoxycarbonyl-amino]-2-ethyl-6-trifluoromethyl-3,4-dihydro-2H-quinoline-1-carboxylic acid ethyl ester]
89 μg/mL added to PBS feed, 80 to 160 minutes
  Maximum Flux of Drug 1: 0.025 μg/cm^2-min
1000 μg/mL added to PBS feed, 90 to 210 minutes
  Maximum Flux of Drug 1: 0.028 μg/cm^2-min
90 to 210 minutes, 1000 μg/mL added to PBS feed
  slope of permeate concentration versus time (least-squares fit): 0.035 μg/mL-min
Time 0 min, 89 μg/mL added to PBS feed
  Drug 1 Concentration in Permeate: 0.0 µg/mL
Time 0 min, 1000 μg/mL added to PBS feed, 37° C., average of duplicate tests
  Drug 1 Concentration in Permeate: 0.0 µg/mL
Time 20 min, 89 μg/mL added to PBS feed
  Drug 1 Concentration in Permeate: 0.0 µg/mL
Time 30 min, 1000 μg/mL added to PBS feed
  Drug 1 Concentration in Permeate: 0.0 µg/mL
Time 40 min, 89 μg/mL added to PBS feed
  Drug 1 Concentration in Permeate: 0.0 µg/mL
Time 60 min, 89 μg/mL added to PBS feed
  Drug 1 Concentration in Permeate: 0.0 µg/mL
Time 60 min, 1000 μg/mL added to PBS feed
  Drug 1 Concentration in Permeate: 0.0 µg/mL
Time 80 min, 89 μg/mL added to PBS feed
  Drug 1 Concentration in Permeate: 1.7 µg/mL
Time 90 min, 1000 μg/mL added to PBS feed
  Drug 1 Concentration in Permeate: 3.3 µg/mL
Time 100 min, 89 μg/mL added to PBS feed
  Drug 1 Concentration in Permeate: 2.2 µg/mL
Time 120 min, 89 μg/mL added to PBS feed
  Drug 1 Concentration in Permeate: 3.0 µg/mL
Time 120 min, 1000 μg/mL added to PBS feed
  Drug 1 Concentration in Permeate: 4.5 µg/mL
Time 140 min, 89 μg/mL added to PBS feed
  Drug 1 Concentration in Permeate: 3.7 µg/mL
Time 150 min, 1000 μg/mL added to PBS feed
  Drug 1 Concentration in Permeate: 6.9 µg/mL
Time 160 min, 89 μg/mL added to PBS feed
  Drug 1 Concentration in Permeate: 4.0 µg/mL
Time 210 min, 1000 μg/mL added to PBS feed
  Drug 1 Concentration in Permeate: 7.4 µg/mL
Time 240 min, 1000 μg/mL added to PBS feed
  Drug 1 Concentration in Permeate: 9.2 µg/mL
Time 270 min, 1000 μg/mL added to PBS feed
  Drug 1 Concentration in Permeate: 11.8 µg/mL
Time 300 min, 1000 μg/mL added to PBS feed
  Drug 1 Concentration in Permeate: 12.2 µg/mL
Time 330 min, 1000 μg/mL added to PBS feed
  Drug 1 Concentration in Permeate: 14.9 µg/mL
Time 360 min, 1000 μg/mL added to PBS feed
  Drug 1 Concentration in Permeate: 13.9 µg/mL
Time 390 min, 1000 μg/mL added to PBS feed
  Drug 1 Concentration in Permeate: 16.9 µg/mL
Time 420 min, 1000 μg/mL added to PBS feed
  Drug 1 Concentration in Permeate: 21.4 µg/mL
Time 450 min, 1000 μg/mL added to PBS feed
  Drug 1 Concentration in Permeate: 21.5 µg/mL
